In publication PMC9386018, “A lymphatic-absorbed multi-targeted kinase inhibitor for myelofibrosis therapy” (Nature Communications, 2022):
Values joined by “and” are separate entries in the source; they are usually repeats but may differ in a detail not shown here. Equal values may be shown once.

Columns and labels:
BRAF = BRAF (Homo sapiens, UniProt P15056); assay: Target kinase 10-point inhibition assay, BRAF; type: biochemical; conditions: replicates
Source text: The average percent kinase inhibition from replicate data was ranked low to high, converted to a compatible identifier format, then input into Coral Human Kinome Visualization software for presentation analysis. […] Scaling of evolutionary distance for PI kinases is only relative and is based on literature analysis[62],[63]. Average percent kinome inhibition values from replicate data are supplied in Source Data file. […] Corrected data was normalized to vehicle treated control values, and dose response percent kinase activity was analyzed by non-linear regression for determination of IC50 values.

[1] = tested on: pAKT (pS473) in splenocytes; assay: MPL^W515L MF mouse model: pAKT in splenocytes by flow cytometry; type: in vivo; conditions: MPL^W515L mice, oral 400 mg kg^−1 daily, 28 d
Procedure: The human megakaryoblastic cell line, SET-2 (ATCC), was maintained in RPMI 1640 supplemented with 20% FBS and incubated for 16 h at 10^6 cells mL^−1 with LP-182 or vehicle (DMSO; dimethyl sulfoxide), then washed in ice-cold PBS, and collected for flow cytometry analysis. Single-cell suspensions of mouse spleen were prepared from MPL^W515L MF mice (below) in RPMI 1640 supplemented with 5% FCS. Red blood cells were lysed by ammonium chloride-mediated red cell lysis (RCL) buffer and passed through a nylon mesh, and then cells were counted. For intracellular phospho-protein staining, SET-2 or spleen cells were fixed and then permeabilized using BD Phospho-flow fixation buffer and Perm-Buffer III (BD biosciences) according to the manufacturer’s protocol. Intracellular phospho-protein staining was performed using fluorochrome-conjugated antibodies, pAKT (pS473)-Alexa Fluor 647 (MB89-61) or pERK1/2 (pT202/pY204)-Alexa Fluor 647 (20 A). […] Flow cytometry was performed on a FACS Fortessa (Becton, Dickinson and Co.) using FACSDiVa software, and data analyzed using FlowJo software (Tree Star). […]
Generation of the MPL^W515L mutant MF mouse model was similar to previously described methods. […] Development of MF was evaluated by spleen volumes using MRI beginning ~14 d following bone marrow transplantation (BMT) as outlined below, continuing weekly until end of the study. […]

Sequence of BRAF (P15056 whole entry): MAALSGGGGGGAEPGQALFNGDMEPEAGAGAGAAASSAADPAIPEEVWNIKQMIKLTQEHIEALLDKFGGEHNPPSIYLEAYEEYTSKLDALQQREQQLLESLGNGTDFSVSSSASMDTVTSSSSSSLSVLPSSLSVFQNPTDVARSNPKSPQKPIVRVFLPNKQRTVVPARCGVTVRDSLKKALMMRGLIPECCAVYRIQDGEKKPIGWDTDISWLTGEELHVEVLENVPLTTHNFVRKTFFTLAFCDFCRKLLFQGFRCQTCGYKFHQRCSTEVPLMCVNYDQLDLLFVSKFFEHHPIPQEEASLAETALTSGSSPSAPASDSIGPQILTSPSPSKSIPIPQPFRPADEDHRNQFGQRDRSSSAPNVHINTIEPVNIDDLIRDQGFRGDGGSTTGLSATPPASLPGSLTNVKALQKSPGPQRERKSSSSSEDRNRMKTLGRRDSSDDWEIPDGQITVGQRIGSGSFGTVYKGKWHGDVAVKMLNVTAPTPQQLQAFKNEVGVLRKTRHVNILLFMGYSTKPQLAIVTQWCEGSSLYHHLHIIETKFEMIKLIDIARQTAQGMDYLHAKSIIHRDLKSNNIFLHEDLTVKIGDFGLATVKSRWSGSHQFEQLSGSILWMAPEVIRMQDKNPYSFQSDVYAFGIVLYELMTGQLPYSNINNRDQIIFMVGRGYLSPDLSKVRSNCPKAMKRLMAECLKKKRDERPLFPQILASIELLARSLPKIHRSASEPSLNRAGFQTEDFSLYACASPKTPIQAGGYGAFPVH

## O=C(NOCCOCCOCCOCCC(=O)N1CCN(c2cnc3ccc(-c4cnc(Cl)c(NS(=O)(=O)c5ccc(F)cc5)c4)cc3n2)CC1)c1ccc(F)c(F)c1Nc1ccc(I)cc1F [LP-182, N-(2-(2-(2-(3-(4-(7-(6-chloro-5-((4-fluorophenyl)sulfonamido)pyridin-3-yl)quinoxalin-2-yl)piperazin-1-yl)-3-oxopropoxy)ethoxy)ethoxy)ethoxy)-3,4-difluoro-2-((2-fluoro-4-iodophenyl)amino)benzamide]
BRAF; 0.495 nM
  activity at 0.000495 µM: 100%
BRAF; 0.495 nM, 0.000495 µM
  Kinase Activity (%): 102% and 96% and 94% and 93%
BRAF; 1.52 nM
  activity at 0.00152 µM: 101%
BRAF; 1.52 nM, 0.00152 µM
  Kinase Activity (%): 98% and 95% (2×) and 94%
BRAF; 4.57 nM
  activity at 0.00457 µM: 90%
BRAF; 4.57 nM, 0.00457 µM
  Kinase Activity (%): 94% and 95% and 98% and 89% and 93%
BRAF; 41.2 nM, 0.0412 µM
  Kinase Activity (%): 49% and 38% and 54% and 59% and 53% (2×)
BRAF; 123 nM, 0.123 µM
  Kinase Activity (%): 14% and 12% and 41% and 34% (2×) and 38%
BRAF; 1110 nM, 1.11 µM
  Kinase Activity (%): -5% and -3% and 2% (2×) and 4% and 5%
BRAF; 3330 nM, 3.33 µM
  Kinase Activity (%): -5% (2×) and 1% (3×) and 4%
BRAF; 10000 nM, 10 µM
  Kinase Activity (%): -2% and -5% and 2% and 1% and 7% and -1%
[1]
  active AKT level in splenocytes: reduced active AKT and ERK1/2 levels to those comparable to healthy control mice
